In data set [1] the test system is mouse dorsal root ganglion (DRG) cells. Put plainly: Calcium imaging of mammalian sensory neurons. The class given is cell-based. The conditions noted are these: 1 µM peptide, Fluo-4 calcium imaging, neuronal and non-neuronal cells. The method, then:
Calcium imaging of a heterogenous population of mouse dorsal root ganglion (DRG) sensory neurons was performed as previously described. In brief, dorsal root ganglion (DRG) cells isolated from 4–8-week-old male C57BL/6 mice under ethics approval TRI/IMB/093/17 (University of Queensland Animal Ethics Committee, approval date 31/03/2017) were dissociated and then plated in Dulbecco’s modified Eagle’s medium (Gibco, Grand Island, NY, USA) containing 10% fetal bovine serum (FBS; Assaymatrix, Melbourne, Australia) and penicillin/streptomycin (Gibco) on a 96-well poly-D-lysine–coated culture plate (Corning, Lowell, MA, USA), and maintained overnight. Cells were loaded with Fluo-4 AM calcium indicator as per the manufacturer’s instructions (Thermo Fisher Scientific, Grand Island, NY, USA). After loading for 1 h, the dye solution was replaced with assay solution (Hanks’ balanced salt solution and 20 mM HEPES). Fluorescence corresponding to intracellular calcium ([Ca^2+]i) of typically 100–150 DRG cells per experiment was monitored in parallel using a Nikon Ti-E deconvolution inverted microscope, equipped with a Lumencor Spectra LED light source. Images were acquired at a 20× objective at one frame/s (excitation 485 nm; emission 521 nm). For each experiment, baseline fluorescence was monitored for 30 s and then a wash of assay solution was applied.

Data set [2] concerns Haemonchus contortus. Put plainly: microbe, parasite or virus in culture. The class given is cell-based. The procedure:
Sheep were infected with H. contortus Kirby isolate (field isolate from the University of New England Kirby Research Farm in 1986; susceptible to all commercial anthelmintics) and housed at the Commonwealth Scientific and Industrial Research Organisation (CSIRO) FD McMaster Laboratory, Armidale, NSW. All animal procedures were approved by the FD McMaster Animal Ethics Committee, CSIRO (Approval Number AEC 17/12, approval date 15.6.2017). Eggs were prepared from overnight fecal collection as described. In brief, feces were filtered through mesh filters, settled, and supernatant removed by vacuum. Eggs were recovered by density centrifugation using 10 and 25% (w/v) sucrose solutions, centrifuged at 650× g for 7 min. Eggs were recovered from the interface of the two sucrose layers, rinsed with distilled water, sterilized with bleach, rinsed again, and diluted to 4500 eggs/mL. Tylosin tartrate (800 μg/mL) and amphotericin B (25.0 μg/mL) were added, and eggs were used immediately for larval development assays.
Assays were conducted using 96-well microtitre plates, with each well containing 50 μL of 2% agar, 20 μL of egg solution and 20 μL of peptide solution in water. The commercial anthelmintic levamisole (Sigma Aldrich) was used as a positive control (final 1% v/v). Negative controls contained equivalent volumes of water or DMSO (final 1% v/v). Plates were incubated at 26 °C for six days. After 24 h, each well was fed with 10 μL of a nutrient solution containing Escherichia coli XL1-Blue1 (grown overnight at 37 °C) and growth medium. The growth medium consisted of yeast extract (1% w/v), Earle’s salt solution (10% v/v), saline solution (0.9% NaCl, w/v), and sodium bicarbonate (1 mM) in Luria-Bertani medium (LB). Larvae were killed and stained with Lugol’s iodine solution after six days. Larvae that had developed to the infective L3 stage were counted, and the numbers in treated assay wells were expressed as a percentage of the number of infective L3 stage larvae in multiple control wells. Concentrations that caused 50% inhibition (IC50 values) were calculated from three experiments of duplicate assays.

Data set [3] deals with human red blood cells. The conditions noted are these: cited from earlier work. The method, then:
Table 2 Summary of bioassay data for synthetic Mp1a and analogues, including effective concentration (EC50) for activation of F11 cells, concentrations that caused 50% inhibition (IC50) for inhibition of larval development of H. contortus; median lethal dose (LD50) for lethal insecticidal effects on D. melanogaster; concentrations required to induce 50% cell death (CC50) for effects on viability o | column: Hemolysis (HC50 µM) ^b

The subject of data set [4] is A. baumannii ATCC 19606. The conditions noted are these: taken from Dekan et al.; cited from earlier work.
The test system of data set [5] is S. aureus NARSA-VRS1. The note with it: taken from Dekan et al.; cited from earlier work.
Data set [6] relates to S. pneumoniae ATCC 700677. The note with it: taken from Dekan et al.; cited from earlier work.
Data set [7] relates to S. aureus NRS 17. The conditions noted are these: taken from Dekan et al.; cited from earlier work.
For data set [8], the system named is F11 cells. Put plainly: FLIPR calcium assay, activation of F11 cells. The class given is cell-based. The note with it: F11 cells, FLIPR. The method, then:
F11 cells were cultured as previously described. Cells were maintained on Ham’s F12 media supplemented with 10% fetal bovine serum (FBS), 100 µM hypoxanthine, 0.4 µM aminopterin, and 16 µM thymidine (Hybri-MaxTM, Sigma Aldrich, North Ryde, Australia). Then, 384-well imaging plates (Corning) were seeded 48 h prior to imaging resulting in 90–95% confluence at imaging. Cells were incubated for 30 min with the Calcium 4 assay component A according to the manufacturer’s instructions (Molecular Devices, Sunnyvale, CA, USA) in physiological salt solution (PSS; composition in mM: 140 NaCl, 11.5 D-glucose, 5.9 KCl, 1.4 MgCl2, 1.2 NaH2PO4, 5 NaHCO3, 1.8 CaCl2, 10 HEPES) at 37°C. Fluorescence was measured using a fluorescent imaging plate reader (FLIPR^TETRA) equipped with a CCD camera (Excitation: 470–490 nm, Emission: […]) (Molecular Devices, Sunnyvale, CA, USA). Signals were read every second for 10 s before, and 300 s after the addition of peptides in PSS supplemented with 0.1% bovine serum albumin. All data are the mean ± SEM of assays performed in triplicate. Maximum–minimum fluorescence in the 300 s period after peptide addition was recorded as the response. Concentration–response data were fitted with a four-parameter Hill equation (variable slope) using GraphPad Prism 8 to obtain effective concentration (EC50) values.

The test system of data set [9] is K. pneumoniae ATCC 700603. The conditions noted are these: taken from Dekan et al.; cited from earlier work.
In data set [10] the test system is P. aeruginosa FADDI-PA70. The conditions noted are these: taken from Dekan et al.; cited from earlier work.

Results on 1 compound are retold here after article PMC7400207, “It Takes Two: Dimerization Is Essential for the Broad-Spectrum Predatory and Defensive Activities of the Venom Peptide Mp1a from the Jack Jumper Ant Myrmecia pilosula” (Biomedicines, 2020).

Values after ≈ are worked out from the molar mass of the structure shown. Like-named read-outs stand apart in the source and are kept apart here.

A word on the MIC: it is the smallest concentration in the dilution series that meets the test's criterion for growth inhibition. Broadly, the EC50 is the concentration at which the effect is half-maximal. For the compound `CC[C@H](C)[C@H](N)C(=O)N[C@@H](CC(=O)O)C(=O)N[C@@H](Cc1c[nH]c2ccccc12)C(=O)N[C@@H](CCCCN)C(=O)N[C@@H](CCCCN)C(=O)N[C@H](C(=O)N[C@@H](CC(=O)O)C(=O)N[C@@H](Cc1c[nH]c2ccccc12)C(=O)N[C@@H](CCCCN)C(=O)N[C@@H](CCCCN)C(=O)N[C@H](C(=O)N[C@@H](CO)C(=O)N[C@@H](CCCCN)C(=O)N[C@@H](CCCCN)C(=O)N[C@H](C(=O)N[C@H]1CSSC[C@@H](C(=O)N[C@@H](CCCCN)C(=O)N[C@@H](CCCCN)C(=O)N[C@H](C(=O)N[C@@H](CC(C)C)C(=O)N[C@@H](CCCCN)C(=O)N[C@@H](CCC(N)=O)C(N)=O)C(C)C)NC(=O)[C@H](C(C)C)NC(=O)[C@H]([C@@H](C)O)NC(=O)[C@H](CCCCN)NC(=O)[C@H](C(C)C)NC(=O)[C@H](CC(C)C)NC(=O)[C@H](C(C)C)NC(=O)[C@@H](NC(=O)[C@@H](NC(=O)CNC(=O)[C@H](CCCCN)NC(=O)[C@H](CO)NC(=O)[C@@H](NC(=O)[C@H](CC(C)C)NC(=O)CNC(=O)[C@@H](NC(=O)[C@@H](N)CC(C)C)[C@@H](C)CC)C(C)C)[C@@H](C)O)CSSC[C@@H](C(=O)N[C@@H](CCCCN)C(=O)N[C@@H](Cc2ccccc2)C(=O)N[C@@H](CC(C)C)C(N)=O)NC(=O)[C@H](C)NC(=O)[C@H](CCCCN)NC(=O)[C@H](CC(C)C)NC(=O)[C@H](CCSC)NC(=O)[C@H](C(C)C)NC(=O)[C@H](CCCCN)NC1=O)[C@@H](C)O)C(C)C)C(C)C` [Analogue 1a, ∆-myrtoxin-Mp1a], the “Effect on [Ca2+]i of DRG cells” value in data set [1] is “rapid increase in [Ca^2+]i in all cells”. The IC50 in data set [2] (H. contortus Kirby isolate, egg to infective L3, 6 days, 26 °C, three experiments of duplicate assays, ± SEM, for 1a the component at higher concentrations (about 90% of population), read-out: Anthelmintic Activity (IC50), inhibition of larval development) turned out to be 6.8 ± 0.5 µM; in [2] (H. contortus larval development, component of the response at < 2 µM, read-out: IC50 for the response observed at lower concentrations (biphasic curve)) it was 0.19 µM. Also, the “Larval development as % of that observed in control assays” value in data set [2] (at low micromolar concentrations (< 2 µM)) is 90%. For the same compound, the “Fold more potent than spider-venom peptide Hi1a” value in data set [2] (larval development, same assay) is “about threefold”. Moreover, the “Hemolysis (HC50)” value in data set [3] is listed as 2.2 µM. Further, the MIC in data set [4] was 0.025 µM (≈ 0.14 µg/mL); in data set [5] it was 3.2 to 6.4 µM; in data set [6], 0.4 to 0.8 µM; in data set [7], 0.4 to 0.8 µM; in data set [9], 0.4 to 0.8 µM; in data set [10] it was 0.8 µM (≈ 4.49 µg/mL). Besides, the “Concentration at which cytolysis (rapid increase in fluorescence followed by decrease to or below baseline) was observed” value in data set [8] is recorded as ≥ 1 µM. For the same compound, the EC50 in [8] (Calcium 4 dye, max-min fluorescence in 300 s after peptide addition, PSS with 0.1% BSA, mean ± SEM, triplicate, read-out: Neuronal Cell Activation (EC50)) came out at 0.85 ± 0.03 µM.
